Target: T1, Enoyl-[acyl-carrier-protein] reductase [NADH] (Mycobacterium tuberculosis (strain ATCC 25618 / H37Rv), UniProt P9WGR1)
T1 sequence (P9WGR1 whole entry): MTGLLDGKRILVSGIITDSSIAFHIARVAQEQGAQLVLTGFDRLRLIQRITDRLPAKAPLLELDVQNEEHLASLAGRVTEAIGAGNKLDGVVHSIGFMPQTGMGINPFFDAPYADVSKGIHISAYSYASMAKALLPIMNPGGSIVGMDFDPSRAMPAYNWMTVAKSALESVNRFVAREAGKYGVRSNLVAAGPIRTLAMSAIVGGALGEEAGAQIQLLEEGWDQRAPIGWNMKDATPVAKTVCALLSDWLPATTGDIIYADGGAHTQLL
Experiment: Inhibition of Mycobacterium tuberculosis InhA

SMILES: CCCCCCc1ccc(Oc2ccccc2Cl)c(O)c1 [PT91]
- IC50: 49 nM

SMILES: CCCCCCc1ccc(Oc2ccccc2C#N)c(O)c1 [PT119]
- IC50: 236 nM

From BindingDB's records for doi:10.1016/j.ejmech.2018.01.047 (Cnrs, 2018)
